Results published in PMC12613816, “Discovery of Novel Isoxazole-Based Small-Molecule Toll-Like Receptor 8 Antagonists” (Journal of Medicinal Chemistry, 2025).

What was measured:
THP-1 macrophages = test: Cell viability (MTT) in THP-1 macrophages; format: cell-based, human; conditions: 24 h, up to 100 μM
Description: Effects on cell viability were assessed by the MTT assay. […] Subsequently, 25 μL of MTT (3-(4,5-dimethylthiazol-2-yl)-2,5-diphenyltetrazolium bromide, 5 mg/mL) was added and incubated for 4 h at 37 °C. After the supernatants were removed, DMSO (4720.1, Carl Roth, Karlsruhe, Germany) was added and absorption at 540 nm was measured. Viability of the untreated cells was defined as 100%. DMSO (10% (v/v); A994.1, Carl Roth, Karlsruhe, Germany) served as a positive control. page 9: Figure S8. […] (A) THP-1 Macrophages were incubated with increasing concentrations of 10 and 12 for 24 h. Cell viability was analyzed using the MTT assay, and normalized to non-stimulated cells (vehicle control). DMSO (10%, v/v) was used as the cytotoxic control. Mean + SEM (n=3). (B) PBMCs

PBMCs = test: Cell viability (LDH release) in PBMCs; format: cell-based, human; conditions: 24 h, up to 100 μM
Description: In selected experiments, LDH assay was performed according to the manufacturer’s instructions (Thermo fisher Scientific, Darmstadt, Germany). The percentage of LDH release was calculated compared to the 100% cell lysis control.
(A) THP-1 Macrophages were incubated with increasing concentrations of 10 and 12 for 24 h. Cell viability was analyzed using the MTT assay, and normalized to non-stimulated cells (vehicle control). DMSO (10%, v/v) was used as the cytotoxic control. Mean + SEM (n=3). (B) PBMCs were incubated with 0.6 µM TL8-506 or increasing concentrations of 10 and 12 for 24 h. LDH […]
maximum LDH release. Mean + SEM (n=3-4).

TLR2 or TLR4 = test: TNF release in THP-1 macrophages stimulated with TLR2 or TLR4 agonists (Pam3CSK4, Pam2CSK4, LPS); format: cell-based, human; conditions: 10 μM compound, 24 h
Excerpt: Mean ± SEM (n = 3). […] Mean + SEM (n = 4).

[1] = tested on: TLR2/1, TLR2/6, TLR3, TLR4, TLR5, TLR7, TLR9; test: TLR specificity in hTLR-HEK293 reporter cells (NF-κB SEAP); format: cell-based, human; conditions: 10 μM compound
Description: (§1) Mean + SEM (n = 3). […] Bar graphs show mean + SEM (n = 3). […] Mean + SEM (n = 4). […] Whole-cell lysates were used for WB. […] Mean + SEM (n = 4). […] Mean + SEM (n = 4). […] Mean ± SEM (n = 3).
(§2) HEK-Blue cells (4 × 10^4 cells/well) and THP-1 macrophages (4 × 10^4 cells/well, 4 × 10^5 cells/well and 8 × 10^5 cells/well) were seeded in 96-well plates, 24-well plates, or 6-well plates (PS, Sarsted, Germany), respectively. For stimulation experiments, cells were washed with phosphate-buffered saline (PBS, Sigma-Aldrich) and media was replaced with OptiMEM (Thermo Fisher Scientific, Darmstadt, Germany). […] The following TLR ligands were used: Pam2CSK4, Pam3CSK4, poly(I:C) (HMW), LPS from Escherichia coli O111:B4 (LPS-EB Ultrapure), flagellin from Bacillus subtilis (flagellin-BS Ultrapure), CL307, CL075, R848, TL8-506, ODN2006 (all from InvivoGen, Toulouse, France), and Enpatoran (BIOZOL Diagnostika, Germany).

[2] = tested on: TNF and IL1B mRNA expression; test: TNF and IL1B mRNA expression (qRT-PCR) in TL8-506-stimulated THP-1 macrophages; format: cell-based, human; conditions: 10 μM, TL8-506 (6 μM) 1 h
IL-1β release = IL-1β release after TLR8 priming and NLRP3 activation in THP-1 macrophages; format: cell-based, human; conditions: 10 μM, TL8-506 priming, nigericin or ATP
Excerpt: as §1

p-NF-κB p65, IκBα = test: Western blot of NF-κB pathway proteins in TL8-506-stimulated THP-1 macrophages; format: cell-based, human; conditions: 10 μM, TL8-506 (0.6 μM) 15 min
Excerpt: as §1
Twenty-five μg protein per lane was separated on a 10% TGX Stain-Free FastCast acrylamide gel (1610183, Bio-Rad, Feldkirchen, Germany) containing TEMED (2367, Carl Roth, Karlsruhe, Germany) and ammonium persulfate (A3678, Sigma-Aldrich, Taufkirchen, Germany) using MiniPROTEAN electrophoresis system (Bio-Rad). Gels were blotted on low fluorescence polyvinylidene difluoride membranes (Immobilon-FL PVDF low fluorescence; 05317, Merck, Darmstadt, Germany) using the Trans-Blot Turbo System (Bio-Rad, Feldkirchen, Germany). Membranes were blocked using 5% milk (T145.2, Carl Roth, Karlsruhe, Germany) in TBS-T buffer consisting of TRIS HCl (T3253, Sigma-Aldrich, Taufkirchen, Germany), NaCl (27810.295, VWR, Darmstadt, Germany), and Tween 20 (9127.1, Carl Roth, Karlsruhe, Germany). […] Afterward, they were washed three times with TBS-T and incubated with either rabbit anti-IgG HRP conjugated antibody (no. 7074) or mouse anti-IgG HRP conjugated antibody (no. 7076), all from Cell Signaling Technology (CST, Leiden, The Netherlands), for one h at RT. […] Values of protein expression were analyzed by densitometry and normalized to total protein levels using Image lab 6.1 Bio-Rad, Feldkirchen, Germany.

hTLR7 = biological target: T1, hTLR7 (Homo sapiens, UniProt Q9NYK1); test: Inhibition of CL307-stimulated NF-κB activity (SEAP reporter) in hTLR7-HEK293 reporter cells; format: cell-based
T1 construct: host or cells: HEK293 (HEK-Blue hTLR7)
T1 sequence (Q9NYK1 27-1049): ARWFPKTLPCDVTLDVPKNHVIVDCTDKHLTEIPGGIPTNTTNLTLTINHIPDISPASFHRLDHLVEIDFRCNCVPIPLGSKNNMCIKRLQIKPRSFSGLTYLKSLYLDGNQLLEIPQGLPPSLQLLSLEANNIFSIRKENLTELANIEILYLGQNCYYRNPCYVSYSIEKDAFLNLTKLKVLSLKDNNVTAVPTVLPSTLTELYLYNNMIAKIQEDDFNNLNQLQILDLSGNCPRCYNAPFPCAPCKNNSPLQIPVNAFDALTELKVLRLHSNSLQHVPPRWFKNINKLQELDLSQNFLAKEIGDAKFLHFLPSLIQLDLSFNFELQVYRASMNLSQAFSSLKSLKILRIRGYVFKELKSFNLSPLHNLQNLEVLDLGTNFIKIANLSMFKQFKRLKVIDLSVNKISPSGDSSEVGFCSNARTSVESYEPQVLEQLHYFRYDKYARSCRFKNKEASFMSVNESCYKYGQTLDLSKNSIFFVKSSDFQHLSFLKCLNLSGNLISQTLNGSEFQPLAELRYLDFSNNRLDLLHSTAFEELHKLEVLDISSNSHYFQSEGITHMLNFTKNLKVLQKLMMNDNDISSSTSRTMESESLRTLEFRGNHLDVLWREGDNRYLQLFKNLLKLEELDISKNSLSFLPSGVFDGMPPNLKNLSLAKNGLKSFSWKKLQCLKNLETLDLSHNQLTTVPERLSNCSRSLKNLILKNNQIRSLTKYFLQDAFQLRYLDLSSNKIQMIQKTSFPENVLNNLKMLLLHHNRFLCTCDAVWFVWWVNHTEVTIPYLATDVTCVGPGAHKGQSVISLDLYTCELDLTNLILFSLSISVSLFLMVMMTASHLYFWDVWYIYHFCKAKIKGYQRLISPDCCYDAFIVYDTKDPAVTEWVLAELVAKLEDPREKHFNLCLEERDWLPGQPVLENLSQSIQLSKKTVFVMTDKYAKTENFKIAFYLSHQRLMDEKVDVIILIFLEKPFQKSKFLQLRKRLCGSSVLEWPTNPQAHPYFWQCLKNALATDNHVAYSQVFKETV
Excerpt: as §2, with “For” for “HEK-Blue cells (4 × 10^4 cells/well) and THP-1 macrophages (4 × 10^4 cells/well, 4 × 10^5 cells/well and 8 × 10^5 cells/well) were seeded in 96-well plates, 24-well plates, or 6-well plates (PS, Sarsted, Germany), respectively. For”

TLR8 [3] = biological target: T2, TLR8 (Homo sapiens, UniProt Q9NR97); test: Inhibition of TL8-506-stimulated NF-κB activity (SEAP reporter, QuantiBlue) in hTLR8-HEK293 reporter cells; format: cell-based; design: host or cells: HEK293 (HEK-Blue hTLR8)
T2 sequence (Q9NR97 27-1041): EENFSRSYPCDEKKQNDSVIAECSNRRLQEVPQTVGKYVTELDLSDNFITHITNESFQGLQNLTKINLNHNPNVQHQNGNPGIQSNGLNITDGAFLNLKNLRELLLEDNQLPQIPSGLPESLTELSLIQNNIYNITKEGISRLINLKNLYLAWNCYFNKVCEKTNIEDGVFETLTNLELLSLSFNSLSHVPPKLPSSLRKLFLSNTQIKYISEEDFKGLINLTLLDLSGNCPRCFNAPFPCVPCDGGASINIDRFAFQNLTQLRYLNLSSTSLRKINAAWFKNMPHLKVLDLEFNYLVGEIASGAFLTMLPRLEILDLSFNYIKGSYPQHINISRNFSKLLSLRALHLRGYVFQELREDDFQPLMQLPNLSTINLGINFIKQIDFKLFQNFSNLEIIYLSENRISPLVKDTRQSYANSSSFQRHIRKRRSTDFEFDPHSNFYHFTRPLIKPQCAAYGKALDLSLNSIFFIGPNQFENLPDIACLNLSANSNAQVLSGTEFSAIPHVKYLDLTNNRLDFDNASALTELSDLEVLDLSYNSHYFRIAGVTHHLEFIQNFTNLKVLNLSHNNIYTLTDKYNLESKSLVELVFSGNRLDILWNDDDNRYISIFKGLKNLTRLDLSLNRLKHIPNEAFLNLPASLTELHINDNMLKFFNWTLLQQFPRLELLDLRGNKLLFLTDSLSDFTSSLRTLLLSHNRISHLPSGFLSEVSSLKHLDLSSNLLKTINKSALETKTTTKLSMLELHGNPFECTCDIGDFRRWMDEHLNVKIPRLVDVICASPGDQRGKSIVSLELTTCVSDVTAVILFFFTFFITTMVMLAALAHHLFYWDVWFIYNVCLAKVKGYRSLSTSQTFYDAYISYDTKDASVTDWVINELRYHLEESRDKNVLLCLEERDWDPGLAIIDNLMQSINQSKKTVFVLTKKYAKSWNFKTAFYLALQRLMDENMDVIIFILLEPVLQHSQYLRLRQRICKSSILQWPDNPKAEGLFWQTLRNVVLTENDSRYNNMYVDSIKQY

TLR8 [4] = biological target: T2, TLR8; test: Inhibition of TL8-506-stimulated TNF release (ELISA) in PBMCs; conditions: read-out: IC50 [μM] (95% CI) TNF release PBMCs, 1 h preincubation, TL8-506 (0.6 μM) 4 h
TLR8 [5] = biological target: T2, TLR8; test: Inhibition of TLR8 agonist-stimulated TNF release (ELISA) in THP-1 macrophages

SMILES | Cell viability THP-1 macrophages (THP-1 macrophages) | Cell viability PBMCs (PBMCs) | TNF responses to TLR2 or TLR4 agonists (TLR2 or TLR4) | Activity against other TLRs (NF-κB activation) [1] | mRNA expression levels of TNF and IL1B [2] | IL-1β release (IL-1β release) | IκBα level (p-NF-κB p65, IκBα) | p-NF-κB p65 level (p-NF-κB p65, IκBα) | Selectivity factor IC50 (TLR7)/ IC50 (TLR8) (hTLR7; hTLR7-HEK293 vs hTLR8-HEK293) | IC50 (hTLR7; read-out: IC50 [μM] (95% CI) hTLR7-HEK293, inhibition of NF-κB activity, 1 h preincubation, CL307 (1.7 µM) 24 h) [µM] | IC50 (TLR8 [3]) [µM] | inhibition at 10 µM (TLR8 [3]; read-out: % inhibition at 10 µM ± SEM (NF-κB activity), 10 µM compound, TL8-506 (0.6 μM) 24 h, hTLR8-HEK293) [%] | IC50 (TLR8 [3]; read-out: IC50 [μM] (95% CI) hTLR8-HEK293, inhibition of NF-κB activity, 1 h preincubation, TL8-506 (0.6 μM) 24 h) [µM] | IC50 (TLR8 [4]) [µM] | TNF production in response to TLR8 agonists TL8-506 or CL075 (TLR8 [5]; 10 μM compound, THP-1 macrophages, 24 h) | IC50 (TLR8 [5]; read-out: IC50 [μM] (95% CI) TNF release THP-1 macrophages, 1 h preincubation, TL8-506 (0.6 μM) 4 h, ELISA) [µM]
CCN1CCC(NC(=O)c2ccc(OCc3c(C)noc3C)c(OC)c2)CC1 [Compound 10] | unaffected up to 100 μM | without affecting cell viability up to 100 μM | without influencing responses | no significant activity against other TLRs | significantly inhibited | blocked | increased | reduced | – | – | – | – | – | – | – | –
COc1cc(C(=O)NCC(c2ccc(C)cc2)N(C)C)ccc1OCc1c(C)noc1C (stereo not shown) [Compound 12] | unaffected up to 100 μM | without affecting cell viability up to 100 μM | without influencing responses | – | – | – | – | – | >102 | > 50 | < 0.5 | 83 ± 15 | 0.5 | 1.15 | selectively inhibited | 0.12
